# According to patent publication US20230293560A1, “METHOD FOR MODULATING THE BLADDER MICROBIOME TO IMPROVE BLADDER HEALTH” (Kimberly-Clark Worldwide, Inc., priority 2020, published 2023):
# How the values were obtained:
# [1] = tested on: E. faecalis; assay: High throughput assay screening of prebiotics; assay type: cell-based, Enterococcus faecalis; parameters: key: ++: if growth and fermentation was equal to or greater than the positive control; +: if growth and fermentation was less than the positive control; +: if weak or no growth or fermentation; +^2: Bacteria demonstrated growth but no fermentation on the prebiotic; conditions: 2% w/v prebiotic in API 50 CHL media; for growth and fermentation vs positive control, Ef-2: E. faecalis KC16-7171-3, Bladder; for growth and fermentation vs positive control, Ef-3: E. faecalis KC17-3969-2B, Bladder; for growth and fermentation vs positive control, Ef-4: E. faecalis KC17-4331-3, Bladder
# Method: (§1) Most of the prebiotic compounds were initially tested in a high throughput assay screening process, described further in the Test Methods section herein, but three prebiotics (as noted in Table 3) were tested using a plate assay screening process as described in the Test Methods section herein. The prebiotics were tested against the commensal bacterial species of Lactobacillus crispatus, Lactobacillus gasseri, and Lactobacillus jensenii and against the pathogenic bacterial species of Streptococcus anginosus and Enterococcus faecalis as shown in Table 2. The bacterial species were taken from different sources, listed as culture collection, bladder, and vagina.
# (§2) The results of the assay plate screening of the prebiotic compounds of Table 1 against the bacterial species of Table 2 is documented in Table 3 with the results being described by the following legend: • ++ if growth and fermentation was equal to or greater than the positive control • + if growth and fermentation was less than the positive control • […] if weak or no growth or fermentation • NT if not tested Some codes were not tested based on the use or non-use by the bacteria, as a way to efficiently move through the assay plate screening to the competition assay, described below.
# (§3) • 1. Create a 2% w/v stock of prebiotic or positive control (glucose/dextrose) to be tested in API 50 CHL media (Biomerieux, Marcy-I'Étoile, France). API 50 CHL media contains minimal amounts of carbon for growth, and a bromocresol purple as a pH indicator of fermentation. Filter sterilize media with a […]. Store at 4-6° C. until use. • 2. Add 180 μL of media containing the prebiotic to a sterile, flat bottom 96-well microtiter plate (Corning, Corning, NY). • 3. From a freezer stock subculture the bacteria twice into De Man, Rogosa and Sharpe (MRS) broth (BD Difco, Becton Dickinson, Franklin Lakes, NJ), 37° C., stationary, anaerobic, overnight. • 4. From the last subculture, plate onto an MRS agar plate (Teknova, Hollister, CA) and grow 37° C., stationary, anaerobic, overnight. • 5. Create a bacterial suspension by using a sterile tipped swab to transfer colonies of bacteria into a PBS suspension blank to a 0.5 MacFarland (S. anginosus or E. faecalis) or a 1 MacFarland (Lactobacillus species) from the MRS agar plate. • 6. Enumerate the starting culture. • 7. Inoculate the media alone and media containing the prebiotic or positive control with 20 μL of the bacterial suspension. • 8. Place the plate into a spectrophotometer (Molecular Devices, San Jose, CA) and read the plate every 20 minutes for 24-48 hours. Read wavelengths (OD 430, OD 590, and OD 660). A color change to yellow caused by a drop in pH will be read by an increase in the OD430 value and a decrease in the OD590 value and is indicative of bacterial fermentation. An increase in OD660 values is indicative of an increase in turbidity and bacterial growth.
# [2] = tested on: L. crispatus; assay: High throughput assay screening of prebiotics; assay type: cell-based, Lactobacillus crispatus; parameters: key: ++: if growth and fermentation was equal to or greater than the positive control; +: if growth and fermentation was less than the positive control; +: if weak or no growth or fermentation; +^2: Bacteria demonstrated growth but no fermentation on the prebiotic; conditions: 2% w/v prebiotic in API 50 CHL media; for growth and fermentation vs positive control, Lc-2: L. crispatus KC16-7134-3C, Bladder; for growth and fermentation vs positive control, Lc-3: L. crispatus KC18-1173-1, Bladder; for growth and fermentation vs positive control, Lc-4: L. crispatus KC18-1174-1, Vagina
# Method: as §1, §2, §3
# [3] = tested on: S. anginosus; assay: High throughput assay screening of prebiotics; assay type: cell-based, Streptococcus anginosus; parameters: key: ++: if growth and fermentation was equal to or greater than the positive control; +: if growth and fermentation was less than the positive control; +: if weak or no growth or fermentation; +^2: Bacteria demonstrated growth but no fermentation on the prebiotic; conditions: 2% w/v prebiotic in API 50 CHL media; for growth and fermentation vs positive control, Sa-2: S. anginosus KC18-1131-3B, Bladder
# Method: as §1, §2, §3
# [4] = tested on: L. gasseri; assay: High throughput assay screening of prebiotics; assay type: cell-based, Lactobacillus gasseri; parameters: key: ++: if growth and fermentation was equal to or greater than the positive control; +: if growth and fermentation was less than the positive control; +: if weak or no growth or fermentation; +^2: Bacteria demonstrated growth but no fermentation on the prebiotic; conditions: 2% w/v prebiotic in API 50 CHL media; for growth and fermentation vs positive control, Lg-1: L. gasseri KC16-7135-1, Bladder; for growth and fermentation vs positive control, Lg-2: L. gasseri KC16-7171-1, Bladder; for growth and fermentation vs positive control, Lg-3: L. gasseri KC18-1131-2, Bladder; for growth and fermentation vs positive control, Lg-4: L. gasseri KC18-1142-2, Bladder
# Method: as §1, §2, §3
# [5] = tested on: L. jensenii; assay: High throughput assay screening of prebiotics; assay type: cell-based, Lactobacillus jensenii; parameters: key: ++: if growth and fermentation was equal to or greater than the positive control; +: if growth and fermentation was less than the positive control; +: if weak or no growth or fermentation; +^2: Bacteria demonstrated growth but no fermentation on the prebiotic; conditions: 2% w/v prebiotic in API 50 CHL media; for growth and fermentation vs positive control, Lj-1: L. jensenii KC17-4297-18, Bladder; for growth and fermentation vs positive control, Lj-2: L. jensenii KC17-4347-1, Bladder
# Method: as §1, §2, §3
# [6] = tested on: commensal and pathogenic bacterial species; assay: Prebiotic screening, summary in words across species; assay type: cell-based; conditions: commensal (L. crispatus, L. gasseri, L. jensenii) and pathogenic (S. anginosus, E. faecalis) species
# Method in brief: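 Prebiotics at 2% w/v stock in API 50 CHL medium with bromocresol purple, inoculated with bacteria and read every 20 min for 24-48 h at OD430/590 (fermentation) and OD660 (growth), scored against a glucose control. Some tested on MRS-based agar with the prebiotic in place of glucose; competition assay with L. crispatus and S. anginosus incubated 48 h anaerobically at 37 °C, then enumerated on MRS and TSA.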
Compound,"growth and fermentation vs positive control, Ef-2 [1]","growth and fermentation vs positive control, Ef-3 [1]","growth and fermentation vs positive control, Ef-4 [1]","growth and fermentation vs positive control, Lc-2 [2]","growth and fermentation vs positive control, Lc-3 [2]","growth and fermentation vs positive control, Lc-4 [2]","growth and fermentation vs positive control, Sa-2 [3]","growth and fermentation vs positive control, Lg-1 [4]","growth and fermentation vs positive control, Lg-2 [4]","growth and fermentation vs positive control, Lg-3 [4]","growth and fermentation vs positive control, Lg-4 [4]","growth and fermentation vs positive control, Lj-1 [5]","overall outcome of the screening of Table 3, in words [6]","growth and fermentation vs positive control, Ef-1 ([1]; E. faecalis ATCC BAA-2128, Culture Collection)","growth and fermentation vs positive control, Lc-1 ([2]; L. crispatus ATCC 33820, Culture Collection)","growth and fermentation vs positive control, Sa-1 ([3]; S. anginosus ATCC 33397, Culture Collection)","growth and fermentation vs positive control, Lj-2 [5]","growth and fermentation vs positive control, Lj-3 ([5]; L. jensenii KC17-4368-2, Bladder)"
OC[C@H]1O[C@@H](O[C@H]2[C@H](O)[C@@H](O)[C@H](O)O[C@@H]2CO)[C@H](O)[C@@H](O)[C@@H]1O [D-Cellobiose],++,++,++,++,+,+,++,+,++,++,++,+,"able to provide growth on the commensal bacterial species, but also provided growth on the pathogenic bacterial species",,,,,
Maltotriose,++,++,++,++,++,++,++,++,++,,,,"able to provide growth on the commensal bacterial species, but also provided growth on the pathogenic bacterial species",++,++,++,++,
"OC[C@H]1O[C@](O)(CO)[C@@H](O)[C@@H]1O [Beta-D-fructose, Beta-D-Fructose]",++,++,++,++,++,++,++,+,+,+,+,++,"able to provide growth on the commensal bacterial species, but also provided growth on the pathogenic bacterial species",,,,+,++
